The source of these data is patent US20260209214A1, “LSD1 MODULATORS” (RECURSION PHARMACEUTICALS, INC., priority 2022, published 2026).

Bounds are passed on as bounds.

The assay concerns the target Recombinant human LSD1 (Homo sapiens, UniProt O60341). Briefly: LSD1 inhibition assay (HTRF LSD1 Histone H3K4 mono-demethylation assay, me1->me0). It counts as biochemical. The settings on record: 20 nM recombinant human LSD1, 95 nM H3K4(me1) biotinylated peptide, 15 min preincubation, 60 min at 25° C., read-out: LSD1 inhibition IC50 (nM range). The method, then:
LSD1 biochemical activity was measured using the HTRF® LSD1 Histone H3K4 mono-demethylation assay (me1->me0). Briefly, the enzymatic buffer was prepared by addition of 50 mM Tris-HCl (Sigma cat #T2663-IL), 50 mM NaCl (ThermoFisher cat #AM9759) and 0.01% Tween 20 (ThermoFisher cat #J20605.AP) in distilled water (final pH 8.5). This buffer was supplemented with 10 μM FAD (Fisher Scientific cat #11411838) and 1 mM DTT (Sigma cat #D0632). For the assay, H3K4(me1) biotinylated peptide substrate (Anaspec, cat #64355) was added to provide a final assay concentration of 95 nM. The streptavidin-XL665 (Cisbio cat #610SAXLA) and H3K4 me0-Eu(K) antibody-cryptate (Cisbio, cat #61 KAOKAD) detection reagents were mixed according to the manufacturer's instructions. Test compounds were diluted in DMSO in a series of 10 semi-log step doses; 10 nL of each compound dose were dispensed in 384 well plates. Recombinant human LSD1 was diluted into enzymatic buffer to provide a final assay concentration of 20 nM and added to the tested compounds for 15 minutes. The reaction was started by addition of the substrate and incubated at 25° C. for 60 minutes. The detection reagents were added, and the plate was incubated in the dark for 90 minutes. Fluorescence was measured on an Envision 2103 plate reader with optical setup for […] in the HTRF mode. The ratio of acceptor and donor emission signals was calculated for each well. Percent inhibition values were calculated from the HTRF ratios at different doses and fitted to a 4-parameter logistic curve to determine IC50 values. […]
On the technique in general: TR-FRET usually uses a lanthanide donor and a delayed reading to cut background.
For `N#Cc1ccc(-c2cccc(CC3CNCCO3)c2N2CCC2)cc1F` (stereo not shown) [Example 21, 2′-(azetidin-1-yl)-3-fluoro-3′-[(morpholin-2-yl)methyl]-[1,1′-biphenyl]-4-carbonitrile], the IC50 (in general, the concentration that gives 50% inhibition) lay in the range of 100 to 1000 nM. In the case of `CNC1CCN(c2cccc(-c3ccc(C#N)c(F)c3)c2C2CC2)CC1` [Example 125, 2'-cyclopropyl-3-fluoro-3'-[4-(methylamino)piperidin-1-yl]-[1,1'-biphenyl]-4-carbonitrile], the IC50 was 100 to 1000 nM.

Consider `CN1CCOC(Cc2ccc(N3CCC3)c(-c3ccc(C#N)c(F)c3)c2)C1` (stereo not shown) [Example 146, 2′-(azetidin-1-yl)-3-fluoro-5′-[(4-methylmorpholin-2-yl)methyl]-[1,1′-biphenyl]-4-carbonitrile], for which the IC50 was over 1000 nM.

Consider `N#Cc1ccc(-c2cccc(CC3CNCCO3)c2C#N)cc1F` (stereo not shown) [Example 84, 3′-fluoro-3-[(morpholin-2-yl)methyl]-[1,1′-biphenyl]-2,4′-dicarbonitrile], for which the IC50 is over 1000 nM.

Regarding `Cc1cc(CN2C[C@@H]3[C@@H](N)[C@@H]3C2)c(Cl)c(-c2ccc(C#N)c(F)c2)c1` [Example 347, 3'-{[(1R,5S,6R)-6-amino-3-azabicyclo[3.1.0]hexan-3-yl]methyl}-2'-chloro-3-fluoro-5'-methyl-[1,1'-biphenyl]-4-carbonitrile], the IC50 lay within 100 to 1000 nM.

With `N#Cc1ccc(-c2cccc(CN3C4CNCC3C4)c2C2CC2)cc1F` [Example 274, 2'-cyclopropyl-3'-({3,6-diazabicyclo[3.1.1]heptan-6-yl}methyl)-3-fluoro-[1,1'-biphenyl]-4-carbonitrile], the IC50 fell in the range of 100 to 1000 nM. As for `CNC1CCN(c2cccc(-c3ccc(C#N)c(F)c3)c2-c2ccns2)CC1` [Example 81, 3-fluoro-3'-[4-(methylamino)piperidin-1-yl]-2'-(1,2-thiazol-5-yl)-[1,1'-biphenyl]-4-carbonitrile], the figure is 10 to 25 nM; as for `Cc1cc(CN2C[C@@H]3C[C@H]2CN3C2COC2)c(Cl)c(-c2ccc(C#N)c(F)c2)c1` [Example 345], over 1000 nM; as for `N#Cc1ccc(-c2cc(CN3[C@@H]4CC[C@H]3[C@@H](N)C4)ccc2OCC(F)(F)F)cc1F` (racemic) [Example 316, 5'-{[(1S,2S,4R)-2-amino-7-azabicyclo[2.2.1]heptan-7-yl]methyl}-3-fluoro-2'-(2,2,2-trifluoroethoxy)-[1,1'-biphenyl]-4-carbonitrile], 10 to 25 nM. For `CC(C)(O)Cc1ccc(-c2ccc(CC3CNCCO3)cc2-c2ccc(C#N)c(F)c2)c(F)c1` (stereo not shown) [Example 104, 3-fluoro-2′-[2-fluoro-4-(2-hydroxy-2-methylpropyl)phenyl]-5′-[(morpholin-2-yl)methyl]-[1,1′-biphenyl]-4-carbonitrile], the IC50 was 25 to 100 nM. For the compound `N#Cc1ccc(-c2cccc(CC3CNCCO3)c2-c2ocnc2F)cc1` (stereo in doubt) [Example 2, 2′-(4-fluoro-1,3-oxazol-5-yl)-3′-{[(2R)-morpholin-2-yl]methyl}-[1,1′-biphenyl]-4-carbonitrile], the IC50 lay in the range of 10 to 25 nM.

`COc1cn(-c2ccc(CC3CNCCO3)cc2-c2ccc(C#N)c(F)c2)nc1C` (stereo not shown) [Example 77, 3-fluoro-2′-(4-methoxy-3-methyl-1H-pyrazol-1-yl)-5′-[(morpholin-2-yl)methyl]-[1,1′-biphenyl]-4-carbonitrile]: the IC50 fell in the range of 100 to 1000 nM. For the compound `Cc1ccncc1-c1ccc(CC2CNCCO2)cc1-c1ccc(C#N)c(F)c1` (stereo not shown) [Example 124, 3-fluoro-2′-(4-methylpyridin-3-yl)-5′-[(morpholin-2-yl)methyl]-[1,1′-biphenyl]-4-carbonitrile], the IC50 lay within 100 to 1000 nM. Consider `Cc1sncc1-c1c(CC2CNCCO2)cccc1-c1ccc(C#N)c(F)c1` [Example 113, (2R,3R)-2,3-dihydroxybutanedioic acid; 2-fluoro-4-[2-(5-methylisothiazol-4-yl)-3-(morpholin-2-ylmethyl)phenyl]benzonitrile], for which the IC50 lay in the range of 100 to 1000 nM.

Take `N#Cc1ccc(-c2cccc(CN3[C@@H]4CC[C@H]3[C@@H](N)C4)c2-c2ccsc2)cc1F` (racemic) [Example 244, 3'-{[(1S,2S,4R)-2-amino-7-azabicyclo[2.2.1]heptan-7-yl]methyl}-3-fluoro-2'-(thiophen-3-yl)-[1,1'-biphenyl]-4-carbonitrile]: the IC50 was 25 to 100 nM. For the compound `COCC1(O)CCN(c2ccc(CC3CNCCO3)cc2-c2ccc(C#N)c(F)c2)CC1` (stereo not shown) [Example 126, COCC1(O)CCN(CC1)c2ccc(CC3CNCCO3)cc2c4ccc(C#N)c(F)c4], the IC50 fell in the range of 100 to 1000 nM. As for `N#Cc1ccc(-c2cc(CC3CNCCO3)ccc2N2CCN(c3nccs3)CC2)cc1F` (stereo not shown) [Example 88, 3-fluoro-5′-[(morpholin-2-yl)methyl]-2′-[4-(1,3-thiazol-2-yl)piperazin-1-yl]-[1,1′-biphenyl]-4-carbonitrile], the figure is 100 to 1000 nM; as for `N#Cc1ccc(-c2cccc(CN3CC4(N)CCC3CC4)c2Cl)cc1F` [Example 328, 3'-({4-amino-2-azabicyclo[2.2.2]octan-2-yl}methyl)-2'-chloro-3-fluoro-[1,1'-biphenyl]-4-carbonitrile], 100 to 1000 nM; as for `CC1(O)CCN(c2ccc(CC3CNCCO3)cc2-c2ccc(C#N)c(F)c2)CC1` (stereo not shown) [Example 138, 3-fluoro-2′-(4-hydroxy-4-methylpiperidin-1-yl)-5′-[(morpholin-2-yl)methyl]-[1,1′-biphenyl]-4-carbonitrile], 25 to 100 nM. Take `CNC1CCN(Cc2cccc(-c3ccc(C#N)c(F)c3)c2-c2cnco2)C1` (stereo not shown) [Example 336, 3-fluoro-3'-{[3-(methylamino)pyrrolidin-1-yl]methyl}-2'-(1,3-oxazol-5-yl)-[1,1'-biphenyl]-4-carbonitrile]: the IC50 is 10 to 25 nM. As for `CN[C@]12CC[C@H](C1)N(Cc1cccc(-c3ccc(C#N)c(F)c3)c1C1CC1)C2` [Example 195, 2'-cyclopropyl-3-fluoro-3'-{[(1R,4R)-4-(methylamino)-2-azabicyclo[2.2.1]heptan-2-yl]methyl}-[1,1'-biphenyl]-4-carbonitrile], the figure is 10 to 25 nM. Regarding `CC(C)(c1ccc(N2CCC2)c(-c2ccc(C#N)c(F)c2)c1)C1CNCCO1` (stereo not shown) [Example 136, 2′-(azetidin-1-yl)-3-fluoro-5′-[2-(morpholin-2-yl)propan-2-yl]-[1,1′-biphenyl]-4-carbonitrile], the IC50 is over 1000 nM. Turning to `N#Cc1ccc(-c2cccc(CC3CNCCO3)c2C2=CCCC2)cc1F` (stereo not shown) [Example 64, 2′-(cyclopent-1-en-1-yl)-3-fluoro-3′-[(morpholin-2-yl)methyl]-[1,1′-biphenyl]-4-carbonitrile], the IC50 lay in the range of 25 to 100 nM.

Take `N#Cc1ccc(-c2cccc(CN3CCC4(CCNC4)C3)c2-c2cnco2)cc1` (stereo not shown) [Example 325, 3'-({2,7-diazaspiro[4.4]nonan-2-yl}methyl)-2'-(1,3-oxazol-5-yl)-[1,1'-biphenyl]-4-carbonitrile]: the IC50 was in the range of 10 to 25 nM.

`N#Cc1ccc(-c2cccc(CC3CNCCO3)c2-n2cccn2)cc1F` (stereo not shown) [Example 90, 2-fluoro-4-[3-(morpholin-2-ylmethyl)-2-pyrazol-1-yl-phenyl]benzonitrile]: the IC50 was over 1000 nM.

In the case of `N#Cc1ccc(-c2cc(Cl)cc(CN3[C@@H]4CC[C@H]3[C@@H](N)C4)c2-c2cncs2)cc1F` (racemic) [Example 268, 3'-{[(1S,2S,4R)-2-amino-7-azabicyclo[2.2.1]heptan-7-yl]methyl}-5'-chloro-3-fluoro-2'-(1,3-thiazol-5-yl)-[1,1'-biphenyl]-4-carbonitrile], the IC50 is 10 to 25 nM. Regarding `N#Cc1ccc(-c2cc(CN3C[C@]4(N)CC[C@H]3C4)ccc2N2CCC3(CCCO3)CC2)cc1F` [Example 217, 5'-{[(1S,4S)-4-amino-2-azabicyclo[2.2.1]heptan-2-yl]methyl}-3-fluoro-2'-{1-oxa-8-azaspiro[4.5]decan-8-yl}-[1,1'-biphenyl]-4-carbonitrile], the IC50 was in the range of 10 to 25 nM. As for `N#Cc1ccc(-c2cccc(CN3[C@@H]4CC[C@H]3[C@@H](N)C4)c2-c2cccs2)cc1F` (racemic) [Example 243, 3'-{[(1S,2S,4R)-2-amino-7-azabicyclo[2.2.1]heptan-7-yl]methyl}-3-fluoro-2'-(thiophen-2-yl)-[1,1'-biphenyl]-4-carbonitrile], the figure is 25 to 100 nM; as for `N#Cc1ccc(-c2cccc(C[C@H]3CNCCO3)c2-c2scnc2Cl)cc1F` (single isomer, unassigned) [Example 31], 25 to 100 nM. As for `COCc1c(CN2[C@@H]3CC[C@H]2[C@@H](N)C3)cccc1-c1ccc(C#N)c(F)c1` (racemic) [Example 320, 3'-{[(1S,2S,4R)-2-amino-7-azabicyclo[2.2.1]heptan-7-yl]methyl}-3-fluoro-2'-(methoxymethyl)-[1,1'-biphenyl]-4-carbonitrile], the figure is 100 to 1000 nM; as for `Cc1cc(CC2CNCCO2)c(-c2ccns2)c(-c2ccc(C#N)cc2)c1` (stereo not shown) [Example 53, 5′-methyl-3′-[(morpholin-2-yl)methyl]-2′-(1,2-thiazol-5-yl)-[1,1′-biphenyl]-4-carbonitrile], 10 to 25 nM.
